From article PMC10004634 (PLOS ONE, 2023)
pIC50: −log10 of the molar value.

Experiments:
PRKD3 = PRKD3 (Homo sapiens, UniProt O94806); assay: biochemical; parameters: KINOMEscan scanMAX competition binding, DNA-tagged kinases, qPCR read-out, percent control at 300 nM; conditions: read-out: Percent control / Acalabrutinib
BTK [1] = target: T1, BTK (Homo sapiens, UniProt Q06187); assay: In vivo pharmacodynamics: BTK phosphorylation in TMD8 xenograft tumors (flow cytometry); parameters: endogenous in cells; host or cells: TMD8 tumour cells from subcutaneous xenografts in SCID mice; conditions: TMD8, mouse, 1 h after final administration, read-out: BTK phosphorylation inhibition rate in tumor
Experimental: One hour after the final dosing, mice underwent laparotomy under isoflurane anesthesia and were sacrificed by exsanguination; tumors were collected. After measuring the wet weight, each tumor was placed on a 70-μm cell strainer (BD Falcon, Franklin Lakes, NJ, USA) placed in one well of a six-well plate on ice. After adding an amount of precooled culture medium, tumor cells were detached. The cell suspension was transferred to a tube and centrifuged for 8 min at 400 × g. Supernatant was excluded by aspiration, and cells were resuspended in culture medium. The tumor suspension was diluted with culture medium to a cell density of 1.0 × 10^6 cells/mL and pipetted into a 96-well plate. […] Cells were incubated for a further 10 min. Fix Buffer 1 (BD Biosciences, Franklin Lakes, NJ, USA) was added to each well, and the plate was centrifuged for 8 min at 400 × g at room temperature; the supernatant was removed by decantation. Each sample was washed twice with Perm Wash Buffer (BD Biosciences) before the addition of rabbit monoclonal p-BTK antibody (Tyr-223) (Novus Biologicals, #NB100-79907) diluted 500-fold with Perm Wash Buffer and 30-min incubation in the dark at room temperature. Cells underwent two rounds of Perm Wash buffer washes and centrifugation before the addition of the secondary antibody (100 μL Alexa Fluor 488 [Fab’] 2 fragments of goat anti-rabbit IgG [H+L]; Thermo Fisher Scientific) diluted 5,000-fold with Perm Wash buffer. After a 30-min incubation in the dark at room temperature, cells were washed once more and suspended with Stain Buffer (BD Biosciences). Cytomics FC500 MPL and data analysis software CXP Analysis (both from Beckman Coulter K.K, Shizuoka, Japan) were used for flow cytometry analysis. A gate containing the cell population of interest was created in a forward scatter and side scatter dot plot. […] The 7-AAD-positive cell rate (%) and the mean fluorescent intensity of BTK phosphorylation in cells in the relevant gate were measured. […]

U-2932 cells = assay: Cell viability assay (CellTiter-Glo); type: cell-based; conditions: Homo sapiens, U2932, 72 h
Experimental: After incubation for 72 h at 37°C and 5% CO2/95% air, relative light units (RLU) were measured with the CellTiter-Glo Luminescent Cell Viability Assay (Promega, Madison, WI, USA). […] GraphPad Prism (version 5.01J or 5.04; GraphPad Software, Inc., San Diego, CA, USA) and its base settings were used for initial values and convergence conditions.

T-cells in human PBMC = assay: PBMC stimulation assay, anti-CD3/CD28-stimulated T-cell activation (CD69); type: cell-based; conditions: 16 h, up to the highest concentration of 10 μM
Experimental: (§1) After culturing, the stimulated cells were stained with fluorescently labeled CD3, CD20, and CD69 antibodies. B-cells (identified by gating CD20-positive and CD3-negative cells) and T-cells (identified by gating CD3-positive and CD20-negative cells) were analyzed by flow cytometry to monitor the expression of CD69. […] GraphPad Prism version 5.04 (GraphPad Software, Inc., San Diego, CA, USA) and its base settings were used for initial values and convergence conditions.

TMD8 xenograft tumor = assay: Gene set enrichment analysis (GSEA) of TMD8 xenograft microarray data; type: in vivo, mouse
B-cells in human PBMC = assay: PBMC stimulation assay, anti-IgM-stimulated B-cell activation (CD69); type: cell-based; conditions: anti-IgM 1 μg/mL, 22 h, read-out: IC50 of CD69 inhibition, anti-IgM-stimulated B-cell activation
Experimental: as §1

BTK [2] = target: T1, BTK; assay: KINOMEscan binding assay; conditions: 300 nM; read-out: inhibition of kinase binding (KINOMEscan)
TEC = target: T2, TEC (Homo sapiens, UniProt P42680); assay: LanthaScreen Eu kinase binding assay; parameters: purchased Thermo Fisher Scientific (Invitrogen LanthaScreen service); conditions: 60 min preincubation
T2 sequence (P42680 1-631): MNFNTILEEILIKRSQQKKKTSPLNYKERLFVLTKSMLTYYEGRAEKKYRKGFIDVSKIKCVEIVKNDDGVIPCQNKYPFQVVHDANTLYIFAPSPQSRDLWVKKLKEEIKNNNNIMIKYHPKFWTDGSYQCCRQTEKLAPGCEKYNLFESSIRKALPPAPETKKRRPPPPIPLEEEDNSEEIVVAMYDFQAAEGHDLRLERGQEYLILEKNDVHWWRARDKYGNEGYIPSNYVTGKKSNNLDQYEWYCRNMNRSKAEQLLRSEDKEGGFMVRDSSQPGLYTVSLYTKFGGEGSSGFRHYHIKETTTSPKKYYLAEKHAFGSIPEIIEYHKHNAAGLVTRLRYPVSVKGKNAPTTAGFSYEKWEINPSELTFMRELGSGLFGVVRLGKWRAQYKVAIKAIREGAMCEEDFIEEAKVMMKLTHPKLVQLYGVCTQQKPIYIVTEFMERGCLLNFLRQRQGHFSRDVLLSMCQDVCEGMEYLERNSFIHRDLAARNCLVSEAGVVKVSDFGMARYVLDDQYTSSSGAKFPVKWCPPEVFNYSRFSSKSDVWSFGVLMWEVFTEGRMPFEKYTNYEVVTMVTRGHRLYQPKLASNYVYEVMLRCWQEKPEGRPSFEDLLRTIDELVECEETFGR
Experimental: In all the assays, each test compound was preincubated with peptide/kinase mixture or kinase/antibody mixture for 60 min at room temperature before adding the ATP solution or AlexaFluor labeled Tracer to initiate the 60-min incubation of the reactants.

IKK-beta = target: T3, IKK-beta (Homo sapiens, UniProt O14920); assay: biochemical; parameters: KINOMEscan scanMAX competition binding, DNA-tagged kinases, qPCR read-out, percent control at 300 nM; conditions: read-out: Percent control / Zanubrutinib
T3 construct: gene IKBKB

[3] = GSEA report for tirabrutinib 10, 10 mg/kg vs vehicle
[4] = GSEA report for vehicle, tirabrutinib 10 mg/kg vs vehicle

T1 sequence (Q06187 whole entry): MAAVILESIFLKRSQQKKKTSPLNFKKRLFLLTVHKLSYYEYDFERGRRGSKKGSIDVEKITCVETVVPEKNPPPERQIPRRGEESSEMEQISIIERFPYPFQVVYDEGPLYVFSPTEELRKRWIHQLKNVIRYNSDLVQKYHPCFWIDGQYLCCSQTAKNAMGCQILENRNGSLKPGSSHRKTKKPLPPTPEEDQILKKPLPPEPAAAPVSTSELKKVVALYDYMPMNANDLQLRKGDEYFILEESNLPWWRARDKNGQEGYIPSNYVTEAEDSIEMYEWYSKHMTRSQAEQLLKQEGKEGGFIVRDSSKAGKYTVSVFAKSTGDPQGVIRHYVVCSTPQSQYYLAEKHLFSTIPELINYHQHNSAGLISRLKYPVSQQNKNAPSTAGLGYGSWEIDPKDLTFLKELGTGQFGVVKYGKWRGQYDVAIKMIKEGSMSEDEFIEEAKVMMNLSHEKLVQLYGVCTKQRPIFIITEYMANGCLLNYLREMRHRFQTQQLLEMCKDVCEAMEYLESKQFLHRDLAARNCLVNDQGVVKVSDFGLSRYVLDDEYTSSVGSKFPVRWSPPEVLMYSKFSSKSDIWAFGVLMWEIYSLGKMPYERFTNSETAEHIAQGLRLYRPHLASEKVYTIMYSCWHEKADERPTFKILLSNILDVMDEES
T3 sequence (O14920 whole entry): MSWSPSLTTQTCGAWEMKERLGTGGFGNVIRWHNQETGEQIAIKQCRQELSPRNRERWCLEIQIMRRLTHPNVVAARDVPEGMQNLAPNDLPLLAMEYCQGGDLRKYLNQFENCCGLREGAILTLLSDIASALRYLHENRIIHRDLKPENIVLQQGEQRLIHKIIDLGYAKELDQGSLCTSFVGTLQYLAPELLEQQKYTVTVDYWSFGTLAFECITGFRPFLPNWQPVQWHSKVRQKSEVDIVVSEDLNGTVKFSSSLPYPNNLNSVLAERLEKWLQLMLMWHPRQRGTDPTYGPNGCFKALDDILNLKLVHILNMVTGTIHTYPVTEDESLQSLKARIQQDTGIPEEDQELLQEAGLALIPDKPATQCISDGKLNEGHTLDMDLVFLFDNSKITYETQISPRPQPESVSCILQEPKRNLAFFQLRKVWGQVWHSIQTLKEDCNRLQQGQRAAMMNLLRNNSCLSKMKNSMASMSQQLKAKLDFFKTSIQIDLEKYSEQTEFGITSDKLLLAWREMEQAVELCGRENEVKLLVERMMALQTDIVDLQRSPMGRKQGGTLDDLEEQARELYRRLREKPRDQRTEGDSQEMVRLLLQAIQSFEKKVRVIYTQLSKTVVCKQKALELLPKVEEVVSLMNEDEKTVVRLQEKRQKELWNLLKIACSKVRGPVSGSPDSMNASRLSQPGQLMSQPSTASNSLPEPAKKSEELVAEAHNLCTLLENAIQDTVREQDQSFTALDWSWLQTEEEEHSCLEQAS
Sequence of PRKD3 (O94806 whole entry): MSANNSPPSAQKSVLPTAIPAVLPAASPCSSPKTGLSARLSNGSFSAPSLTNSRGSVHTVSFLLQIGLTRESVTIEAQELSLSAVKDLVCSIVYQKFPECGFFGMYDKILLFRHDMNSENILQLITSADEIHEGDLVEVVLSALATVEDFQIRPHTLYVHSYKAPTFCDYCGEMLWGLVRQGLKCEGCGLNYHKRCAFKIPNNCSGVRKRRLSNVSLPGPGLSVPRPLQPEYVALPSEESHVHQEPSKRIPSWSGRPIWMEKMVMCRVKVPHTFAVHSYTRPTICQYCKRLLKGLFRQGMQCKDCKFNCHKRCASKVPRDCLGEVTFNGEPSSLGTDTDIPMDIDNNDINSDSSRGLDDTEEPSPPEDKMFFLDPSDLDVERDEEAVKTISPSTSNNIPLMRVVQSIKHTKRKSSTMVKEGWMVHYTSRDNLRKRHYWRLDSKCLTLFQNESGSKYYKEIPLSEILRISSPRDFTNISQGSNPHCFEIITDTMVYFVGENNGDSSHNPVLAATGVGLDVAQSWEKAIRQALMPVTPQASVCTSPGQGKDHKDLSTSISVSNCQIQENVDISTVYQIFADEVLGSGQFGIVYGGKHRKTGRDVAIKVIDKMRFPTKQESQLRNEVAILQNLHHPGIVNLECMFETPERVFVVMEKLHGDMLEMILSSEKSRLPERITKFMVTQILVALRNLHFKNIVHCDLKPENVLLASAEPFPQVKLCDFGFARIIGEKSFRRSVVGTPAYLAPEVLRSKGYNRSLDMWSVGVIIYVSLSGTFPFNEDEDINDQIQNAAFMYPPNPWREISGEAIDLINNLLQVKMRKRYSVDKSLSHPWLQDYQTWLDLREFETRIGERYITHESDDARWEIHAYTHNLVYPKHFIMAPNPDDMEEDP

CC#CC(=O)N1CCC[C@H]1c1nc(-c2ccc(C(=O)Nc3ccccn3)cc2)c2c(N)nccn12 [Acalabrutinib]
remaining binding at 0.3 µM (PRKD3): 81%

CC#CC(=O)N1CC[C@@H](n2c(=O)n(-c3ccc(Oc4ccccc4)cc3)c3c(N)ncnc32)C1 [Tirabrutinib]
inhibition at 1 mg/kg (BTK [1]; 1 mg/kg BID 21 days): 64% | inhibition at 3 mg/kg (BTK [1]; 3 mg/kg BID 21 days): 79.2% | inhibition at 10 mg/kg (BTK [1]; 10 mg/kg BID 21 days): 85.4% | inhibition at 0.1 µM (U-2932 cells; at 100 nM, read-out: maximum growth inhibition rate): 30.8% | pIC50 (U-2932 cells; read-out: IC50 of growth inhibition): 7.56 | inhibition of anti-CD3/CD28-stimulated T-cell activation (CD69) (T-cells in human PBMC): did not inhibit | IRF4, MYC, and mTORC1 pathway-related genes (GSEA) (TMD8 xenograft tumor; 10 mg/kg vs vehicle): downregulated | NES DESCARTES_FETAL_LUNG_LYMPHOID_CELLS (TMD8 xenograft tumor; [3]): 2.406 | NES DESCARTES_FETAL_STOMACH_LYMPHOID_CELLS (TMD8 xenograft tumor; [3]): 2.57 | NES GOBP_CYTOKINE_PRODUCTION_INVOLVED_IN_INFLAMMATORY_RESPONSE (TMD8 xenograft tumor; [3]): 2.462 | NES MORI_PLASMA_CELL_DN (TMD8 xenograft tumor; [3]): 2.456 | NES REACTOME_GENERATION_OF_SECOND_MESSENGER_MOLECULES (TMD8 xenograft tumor; [3]): 2.407 | NES ELVIDGE_HIF1A_TARGETS_DN (TMD8 xenograft tumor; [4]): -2.295 | NES GSE29614_CTRL_VS_DAY7_TIV_FLU_VACCINE_PBMC_DN (TMD8 xenograft tumor; [4]): -2.25 | NES MENSE_HYPOXIA_UP (TMD8 xenograft tumor; [4]): -2.505 | NES QI_HYPOXIA (TMD8 xenograft tumor; [4]): -2.398 | NES TSANG_PBMC_FLUVIRIN_PANDEMRIX_ADULT_CORR_WITH_CELL_FREQ_CD27HI_CD38HI_CD20_NEG_PLASMABLASTS_AND_CD38PLUS_OF_IGD_CD27PLUS_MEM_B_CELLS_7DY_POSITIVE (TMD8 xenograft tumor; [4]): -2.3945 | pIC50 (B-cells in human PBMC): 7.86 | inhibition at 0.3 µM (BTK [2]): 97%

C=CC(=O)N1CCC([C@@H]2CCNc3c(C(N)=O)c(-c4ccc(Oc5ccccc5)cc4)nn32)CC1 [Zanubrutinib]
pIC50 (TEC): 8.35 | remaining binding at 0.3 µM (IKK-beta): 100%
